Results reported in patent US20100093811A1 (priority 2007, published 2010).
Where a name gives a salt, the structure may show the parent alone. Read-outs that look alike come from different tables or passages of the source.

Key:
wild-type HIV-1 protease = wild-type HIV-1 protease (Human immunodeficiency virus type 1 group M subtype B, UniProt P04585); experiment: Assay for inhibition of microbial expressed HIV protease; assay type: biochemical
Method in brief: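 Inhibition taken from HPLC (C18) product peak areas after phosphoric acid quench. Reaction: 440 micromolar Val-Ser-Gln-Asn-(betanapthyl)Ala-Pro-Ile-Val peptide, 5 pM E. coli-made protease, 1 h at 30° C, following 30 min room-temperature inhibitor preincubation in pH 5.5 acetate/NaCl/BSA buffer.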

[1] = test system: acute HIV infection of T-lymphoid cells; experiment: Assay for inhibition of HIV replication (spread assay); assay type: cell-based, HIV-1; settings: Human immunodeficiency virus 1, T-lymphoid
Procedure: • Assay for Inhibition of HIV Replication
Assays for the inhibition of acute HIV infection of T-lymphoid cells were conducted in accordance with Vacca, J. P. et al., Proc. Natl. Acad. Sci. USA 1994, 91: 4096.

[2] = wild-type HIV-1 protease expressed in E. coli, peptide substrate, pH 5.5, read-out: Enzyme Inhibition - IC50

| SMILES | IC50 (wild-type HIV-1 protease) [nM] | IC95 ([1]; read-out: Spread - IC95) [nM] | IC50 (wild-type HIV-1 protease; [2]) [nM] | IC95 ([1]; read-out: Spread - IC95 (nM)) [nM] |
| --- | --- | --- | --- | --- |
| CC(C)CCN([C@H](CO)CCC[C@@H](NC(=O)[C@@H](N)C(c1ccc(F)cc1)c1ccc(F)cc1)C1CC1)S(=O)(=O)c1ccc(CO)cc1 [Example J17, N-{(1R,5S)-1-cyclopropyl-6-hydroxy-5-[{[4-(hydroxymethyl)phenyl]sulfonyl}(3-methylbutyl)amino]hexyl}-4-fluoro-β-(4-fluorophenyl)-L-phenylalaninamide hydrochloride] | 0.01 | 6 |  |  |
| COC(=O)N[C@H](C(=O)N[C@@H](C)CCC[C@@H](CO)N(CCCF)S(=O)(=O)c1ccc(CO)cc1)C(c1ccccc1)c1ccccc1 [Example G14, N-[(1S,5S)-5-((3-fluoropropyl){[4-(hydroxymethyl)phenyl]sulfonyl}amino)-6-hydroxy-1-methythexyl]-Nα-(methoxycarbonyl)-β-phenyl-L-phenylalaninamide] |  | 16 | 0.01 |  |
| COC(=O)N[C@H](C(=O)N[C@H](CCC[C@@H](CO)N(CCC(C)C)S(=O)(=O)c1ccc(N)cc1)C1CC1)C(c1ccc(F)cc1)c1ccc(F)cc1 [Example E7, N-{(1R,5S)-5-[[(4-aminophenyl)sulfonyl](3-methylbutyl)amino]-1-cyclopropyl-6-hydroxyhexyl}-4-fluoro-β-(4-fluorophenyl)-Nα-(methoxycarbonyl)-L-phenylalaninamide] |  | 39 | 0.066 |  |
| COC(=O)N[C@H](C(=O)N[C@H](CCC[C@@H](CO)N(C(C)C)S(=O)(=O)c1ccc(CO)cc1)C(F)(F)F)C(c1ccccc1)c1ccccc1 [Example J40, N-[(1R,5S)-6-hydroxy-5-[{[4-(hydroxymethyl)phenyl]sulfonyl}(isopropyl)amino]-1-(trifluoromethyl)hexyl]-Nα-(methoxycarbonyl)-β-phenyl-L-phenylalaninamide] |  | 34 | 0.015 |  |
| CN[C@H](C(=O)N[C@H](CCC[C@@H](CO)N(CCC(C)C)S(=O)(=O)c1ccc(CO)cc1)C(C)C)C(c1ccccc1)c1ccccc1 [Example J29, N-{(1R,5S)-6-hydroxy-5-[{[4-(hydroxymethyl)phenyl]sulfonyl}(3-methylbutyl)amino]-1-isopropylhexyl}-Nα-methyl-β-phenyl-L-phenylalaninamide] |  | 16 | 0.039 |  |
| COC(=O)N[C@H](C(=O)NC(C)(C)CCC[C@@H](CO)N(CCCF)S(=O)(=O)c1ccc(N)cc1)C(c1ccccc1)c1ccccc1 [Example L7, N-{(5S)-5-[[(4-aminophenyl)sulfonyl](3-fluoropropyl)amino]-6-hydroxy-1,1-dimethylhexyl}-Nα-(methoxycarbonyl)-β-phenyl-L-phenylalaninamide] |  | 178 | 0.062 |  |
| COC(=O)N[C@H](C(=O)N[C@@H](C)CCC[C@@H](CO)N(C1CCC1)S(=O)(=O)c1ccc(CO)cc1)C(c1ccccc1)c1ccccc1 [Example G17, N-[(1S,5S)-5-(cyclobutyl{[4-(hydroxymethyl)phenyl]sulfonyl}amino)-6-hydroxy-1-methylhexyl]-Nα-(methoxycarbonyl)-β-phenyl-L-phenylalaninamide] |  | 137 | 0.077 |  |
| CC[C@@H](CCC[C@@H](CO)N(CC(C)C)S(=O)(=O)c1ccc(CO)cc1)NC(=O)[C@@H](NC(=O)OC)C(c1ccc(F)cc1)c1ccc(F)cc1 [Example J20, N-{(1S,5S)-1-ethyl-6-hydroxy-5-[{[4-(hydroxymethyl)phenyl]sulfonyl}(isobutyl)amino]hexyl}-4-fluoro-β-(4-fluorophenyl)-Nα-(methoxycarbonyl)-L-phenylalaninamide] |  | 50 | 0.02 |  |
| COC(=O)N[C@@H](Cc1cccc(Cl)c1Cl)C(=O)N[C@@H](C)CCC[C@@H](CO)N(C(C)C)S(=O)(=O)c1ccc(N)cc1 [Example F16, N-{(1S,5S)-5-[[(4-aminophenyl)sulfonyl](isopropyl)amino]-6-hydroxy-1-methylhexyl}-2,3-dichloro-Nα-(methoxycarbonyl)-L-phenylalaninamide] | 0.128 | 58 |  |  |
| CCCN([C@H](CO)CCC[C@@H](NC(=O)[C@@H](NC(=O)OC)C(c1ccccc1)c1ccccc1)C1CC1)S(=O)(=O)c1ccc(CO)cc1 [Example I4, N-{(1R,5S)-1-cyclopropyl-6-hydroxy-5-[{[4-(hydroxymethyl)phenyl]sulfonyl}(propyl)amino]hexyl}-Nα-(methoxycarbonyl)-β-phenyl-L-phenylalaninamide] |  | 29 | 0.058 |  |
| COC(=O)N[C@H](C(=O)N[C@H](CCC[C@@H](CO)N(CCC(C)C)S(=O)(=O)c1ccc(N)cc1)C(F)(F)F)C(c1ccccc1)c1ccccc1 [Example H2, N-[(1R,5S)-5-[[(4-aminophenyl)sulfonyl](3-methylbutyl)amino]-6-hydroxy-1-(trifluoromethyl)hexyl]-Nα-(methoxycarbonyl)-β-phenyl-L-phenylalaninamide] | 0.01 | 4 |  |  |
| COC(=O)N[C@@H](Cc1ccccc1Cl)C(=O)N[C@H](CCC[C@@H](CO)N(CCC(C)C)S(=O)(=O)c1ccc([C@H](C)O)cc1)C1CC1 [Example J15, 2-chloro-N-{(1R,5S)-1-cyclopropyl-6-hydroxy-5-[({4-[(1S)-1-hydroxyethyl]phenyl}sulfonyl)(3-methylbutyl)amino]hexyl}-Nα-(methoxycarbonyl)-L-pbenylalaninamide] |  | 42 | 0.372 |  |
| COC(=O)N[C@H](C(=O)NCCCC[C@@H](CN)N(CCC(C)C)S(=O)(=O)c1ccc(N)cc1)C(c1ccccc1)c1ccccc1 [Example A2, Methyl [(1S)-2-({6-amino-5-[[(4-aminophenyl)sulfonyl](3-methylbutyl)amino]-hexyl)amino)-1-(diphenylmethyl)-2-oxoethyl]carbamate] |  | 252 | 5 |  |
| COC(=O)N[C@@H](Cc1ccccc1Br)C(=O)N[C@H](CCC[C@@H](CO)N(C(C)C)S(=O)(=O)c1ccc(CO)cc1)C1CC1 [Example J37, 2-bromo-N-{(1R,5S)-1-cyclopropyl-6-hydroxy-5-[{[4-(hydroxymethyl)phenyl]sulfonyl}(isopropyl)amino]hexyl}-Nβ-(methoxycarbonyl)-L-phenylalaninamide] |  | 37 | 0.595 |  |
| COC(=O)N[C@@H](Cc1ccccc1Cl)C(=O)N[C@@H](C)CCC[C@@H](CO)N(C(C)C)S(=O)(=O)c1ccc(N)cc1 [Example G11, N-{(1S,5S)-5-[[(4-aminophenyl)sulfonyl](isopropyl)amino]-6-hydroxy-1-methylhexyl}-2-chloro-Nα-(methoxycarbonyl)-L-phenylalaninamide] |  | 93 | 1.3 |  |
| CC[C@@H](CCC[C@@H](CO)N(CCC(C)C)S(=O)(=O)c1ccc(N)cc1)NC(=O)[C@H](Cc1ccccc1Br)NC(=O)OC [Example F3, N-{(1S,5S)-5-[[(4-aminophenyl)sulfonyl](3-methylbutyl)amino]-1-ethyl-6-hydroxyhexyl}-2-bromo-Nα-(methoxycarbonyl)-L-phenylalaninamide] |  | 25 | 0.196 |  |
| CC[C@@H](CCC[C@@H](CO)N(CCC(C)C)S(=O)(=O)c1ccc(N)cc1)NC(=O)[C@@H](NC(=O)OC)C(c1ccccc1)c1ccccc1 [Example D2] |  |  | 0.016 | 10 |
| COC(=O)N[C@H](C(=O)N[C@H](CCC[C@@H](CO)N(CCC(C)C)S(=O)(=O)c1ccc(N)cc1)C1CC1)C(c1ccccc1)c1ccccc1 [Example E1] | 0.03 | 11 |  |  |
